Source: paper PMC12169847, “Targeted protein degradation by KLHDC2 ligands identified by high-throughput screening” (eLife, 2025)
pEC50: −log10 of the molar value. Several values for one entry are separate records, joined by “and”; a condition that tells them apart may be missing. Identical values can stand only once. Like-named read-outs stand apart in the source and are kept apart here.

Key:
KEAP1 Kelch domain = target: T1, KEAP1 Kelch domain (Homo sapiens, UniProt Q14145); experiment: Fluorescence polarization counter-screen, KEAP1 with TAMRA-NRF2 peptide; format: binding; details: for inhibitory effect in the KEAP1 counter-screening assay: concentrations less than 20 µM; for Fluorescence polarization signal: KEAP1, replicate wells
T1 construct: HIS6 (N); made in house; host or cells: Escherichia coli BL21(DE3)

BRD4 [1] = target: T2, BRD4 (Homo sapiens, UniProt O60885); experiment: Cell-based HiBiT BRD4 degradation assay in HEK293T; design: expressed in transfected cells; host or cells: HEK293T; details: for Relative BRD4 levels (HiBiT luminescence): replicate wells; for DC50: BRD4-HiBiT, HEK293T;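 on all read-outs here: HEK293T cells transiently expressing HiBiT-tagged BRD4, exposed to serially diluted compounds, then lysed for a luminescence read-out that tracks the amount of cellular BRD4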
BRD4 [2] = target: T2, BRD4; experiment: Cell-based endogenous BRD4 degradation assay (western blot) in SK-BR-3; design: expressed in transfected cells
Method: SK-BR-3 cells (0.25×10^6 cells/well, 2 mL) were seeded in six-well polystyrene plates for 24 hr before the compounds were added at the indicated doses as DMSO solutions. The protease inhibitor MG132 (Selleck Chemicals) was added to the sixth well along with 10 μM 3d at a concentration of 10 μM. The plate was incubated at 37°C for 24 hr, and the cells from each well were collected and lysed in RIPA buffer (Thermo Fisher 89900) with Halt protease and phosphatase inhibitor cocktail (Thermo Fisher 78440). The cellular content was extracted on ice for 20 min, and the protein concentration was determined by BCA assay (Thermo Fisher 23327). 2 μg of each sample was resolved via SDS-PAGE gels, and western blotting was used to visualize the endogenous BRD4 level (BRD4 primary antibody Abcam plc, Ab128874, RRID:AB_11145462, 1:10,000 dilution) with Bio-Rad Gel Doc XR+ imaging system.

T1 sequence (Q14145 321-609 limits assumed): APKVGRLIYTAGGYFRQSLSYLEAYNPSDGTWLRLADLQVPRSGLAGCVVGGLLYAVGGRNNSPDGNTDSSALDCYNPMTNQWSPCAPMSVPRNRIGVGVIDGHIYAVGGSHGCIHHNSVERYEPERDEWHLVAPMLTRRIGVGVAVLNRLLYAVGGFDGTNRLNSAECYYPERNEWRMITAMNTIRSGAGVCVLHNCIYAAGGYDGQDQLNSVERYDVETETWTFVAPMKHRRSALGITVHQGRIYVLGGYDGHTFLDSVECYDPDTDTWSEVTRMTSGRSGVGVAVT

SMILES	inhibitory effect in the KEAP1 counter-screening assay (KEAP1 Kelch domain)	Relative BRD4 levels (HiBiT luminescence) (BRD4 [1]; 4 hr, 0.338702 nM)	Relative BRD4 levels (HiBiT luminescence) (BRD4 [1]; 4 hr, 1.01611 nM)	Relative BRD4 levels (HiBiT luminescence) (BRD4 [1]; 4 hr, 3.04832 nM)	Relative BRD4 levels (HiBiT luminescence) (BRD4 [1]; 4 hr, 9.14495 nM)	Relative BRD4 levels (HiBiT luminescence) (BRD4 [1]; 4 hr, 27.4348 nM)	Relative BRD4 levels (HiBiT luminescence) (BRD4 [1]; 4 hr, 82.3045 nM)	Relative BRD4 levels (HiBiT luminescence) (BRD4 [1]; 4 hr, 246.914 nM)	Relative BRD4 levels (HiBiT luminescence) (BRD4 [1]; 4 hr, 740.741 nM)	Relative BRD4 levels (HiBiT luminescence) (BRD4 [1]; 4 hr, 2222.22 nM)	Relative BRD4 levels (HiBiT luminescence) (BRD4 [1]; 4 hr, 6666.67 nM)	Relative BRD4 levels (HiBiT luminescence) (BRD4 [1]; 4 hr, 20000 nM)	Relative BRD4 levels (HiBiT luminescence) (BRD4 [1]; 24 hr, 0.338702 nM)	Relative BRD4 levels (HiBiT luminescence) (BRD4 [1]; 24 hr, 1.01611 nM)	Relative BRD4 levels (HiBiT luminescence) (BRD4 [1]; 24 hr, 3.04832 nM)	Relative BRD4 levels (HiBiT luminescence) (BRD4 [1]; 24 hr, 9.14495 nM)	Relative BRD4 levels (HiBiT luminescence) (BRD4 [1]; 24 hr, 27.4348 nM)	Relative BRD4 levels (HiBiT luminescence) (BRD4 [1]; 24 hr, 82.3045 nM)	DC50 (BRD4 [1]; 4 hr, read-out: DC50 (4 hr))	DC50 (BRD4 [1]; 24 hr, read-out: DC50 (24 hr))	other results
Cc1cc(NS(=O)(=O)c2ccc(Nc3nc(-c4c(C)nc5ccccn45)cs3)cc2)no1 [compound 3]	did not have an inhibitory effect																				
COC(=O)c1cc(Cl)cc2c1NC(c1cccc(OCCOCCOCCNC(=O)CC3N=C(c4ccc(Cl)cc4)c4c(sc(C)c4C)-n4c(C)nnc43)c1)C1C3CCC(C3)C21 [compound 7, Methyl 2-chloro-6-(3-(2-(2-(2-(2-((S)-4-(4-chlorophenyl)–2,3,9-trimethyl-6H-thieno[3,2 f][1,2,4]triazolo[4,3 a][1,4]diazepin-6-yl)acetamido)ethoxy)ethoxy)ethoxy)phenyl)-5,6,6a,7,8,9,10,10a-octahydro-7,10-methanophenanthridine-4-carboxylate]		1.014 and 0.8842 and 1.103	0.9863 and 1.241 and 1.012	0.8761 and 0.9572 and 0.9491	0.9491 and 0.7788 and 0.8761	0.9248 and 1.014 and 0.9978	0.9816 and 0.9329 and 0.9248	0.9653 and 0.868 and 0.941	0.7544 and 0.7706 and 0.8518	0.7382 and 0.5841 and 0.7139	0.3732 and 0.3975 and 0.4462	0.3569 and 0.3164 and 0.3326	1.478 and 0.7263 and 0.7659	0.6909 and 0.8141 and 0.7927	0.6888 and 0.7059 and 0.7509	0.6963 and 0.9298 and 0.7745	0.7895 and 0.7691 and 1.0519	0.858 and 0.8752 and 0.9459	2600 nM and 2630 nM	4000 nM	Relative BRD4 levels (HiBiT luminescence) (BRD4 [1]; 24 hr, 246.914 nM): 0.8891 and 0.8666 and 0.9223; Relative BRD4 levels (HiBiT luminescence) (BRD4 [1]; 24 hr, 740.741 nM): 1.234 and 1.1783 and 1.43; Relative BRD4 levels (HiBiT luminescence) (BRD4 [1]; 24 hr, 2222.22 nM): 0.8473 and 0.8591 and 0.9544; Relative BRD4 levels (HiBiT luminescence) (BRD4 [1]; 24 hr, 6666.67 nM): 0.1778 and 0.1692 and 0.1789; Relative BRD4 levels (HiBiT luminescence) (BRD4 [1]; 24 hr, 20000 nM): 0.1875 and 0.1318 and 0.1307
O=C(O)c1cc(Cl)cc2c1NC(c1cccc(OC(F)(F)F)c1)C1C3CCC(C3)C21 (stereo not shown) [compound 6]	no inhibitory effect																				Fluorescence polarization signal (KEAP1 Kelch domain; 0.169351 nM): 16 and 15 and 25; Fluorescence polarization signal (KEAP1 Kelch domain; 0.508053 nM): 18 and 23 and 21; Fluorescence polarization signal (KEAP1 Kelch domain; 1.52416 nM): 13 and 22 and 29; Fluorescence polarization signal (KEAP1 Kelch domain; 4.57247 nM): 22 and 15 and 21; Fluorescence polarization signal (KEAP1 Kelch domain; 13.7174 nM): 20 and 23 and 18; Fluorescence polarization signal (KEAP1 Kelch domain; 41.1523 nM): 29 and 24 and 17; Fluorescence polarization signal (KEAP1 Kelch domain; 123.457 nM): 18 and 24 and 30; Fluorescence polarization signal (KEAP1 Kelch domain; 370.37 nM): 25 and 12 and 20; Fluorescence polarization signal (KEAP1 Kelch domain; 1111.11 nM): 21 and 16 and 26; Fluorescence polarization signal (KEAP1 Kelch domain; 3333.33 nM): 15 and 23 and 32; Fluorescence polarization signal (KEAP1 Kelch domain; 10000 nM): 23 and 26 and 17; pEC50 (KEAP1 Kelch domain; in figure): < 4.70
COC(=O)c1cc(Cl)cc2c1NC(c1cccc(OCCC3CCN(CC4CCN(C(=O)CC5N=C(c6ccc(Cl)cc6)c6c(sc(C)c6C)-n6c(C)nnc65)CC4)CC3)c1)C1C3CCC(C3)C21 [compound 8, Methyl 2-chloro-6-(3-(2-(1-((1-(2-((S)–4-(4-chlorophenyl)-2,3,9-trimethyl-6H-thieno[3,2 f][1,2,4]triazolo[4,3 a][1,4]diazepin-6-yl)acetyl)piperidin-4-yl)methyl)piperidin-4-yl)ethoxy)phenyl)-5,6,6a,7,8,9,10,10a-octahydro-7,10-methanophenanthridine-4-carboxylate]		0.9416 and 0.7691 and 0.8677	1.421 and 0.6823 and 1.057	0.9694 and 0.7305 and 0.8098	0.8569 and 0.4906 and 0.8452	0.6224 and 0.978 and 0.6213	0.6909 and 0.6031 and 0.4253	0.2967 and 0.3567 and 0.4735	0.2624 and 0.2035 and 0.2314	0.1885 and 0.1435 and 0.2046	0.1767 and 0.1639 and 0.1864	0.2282 and 0.2025 and 0.226	0.9416 and 0.7691 and 0.8677	1.421 and 0.6823 and 1.057	0.9694 and 0.7305 and 0.8098	0.8569 and 0.4906 and 0.8452	0.6224 and 0.978 and 0.6213	0.6909 and 0.6031 and 0.4253	164 nM	80 nM	endogenous BRD4 protein degraded (BRD4 [2]; SK-BR-3, 100 nM, 24 hr): more than 60%; endogenous BRD4 degradation (maximal) (BRD4 [2]; SK-BR-3, 10 µM, 24 hr): 94%; BRD4 remaining (BRD4 [2]; SK-BR-3, 10 µM, DMSO condition, 24 hr): 4%; BRD4 remaining (BRD4 [2]; SK-BR-3, 10 µM, co-treated with MG-132, 24 hr): 29%; Relative BRD4 levels (HiBiT luminescence) (BRD4 [1]; 24 hr, 246.914 nM): 0.2967 and 0.3567 and 0.4735; Relative BRD4 levels (HiBiT luminescence) (BRD4 [1]; 24 hr, 740.741 nM): 0.2624 and 0.2035 and 0.2314; Relative BRD4 levels (HiBiT luminescence) (BRD4 [1]; 24 hr, 2222.22 nM): 0.1885 and 0.1435 and 0.2046; Relative BRD4 levels (HiBiT luminescence) (BRD4 [1]; 24 hr, 6666.67 nM): 0.1767 and 0.1639 and 0.1864; Relative BRD4 levels (HiBiT luminescence) (BRD4 [1]; 24 hr, 20000 nM): 0.2282 and 0.2025 and 0.226
COC(=O)c1cc(Cl)cc2c1NC(c1cccc(OCc3ccc(-c4ccc(NC(=O)C[C@@H]5N=C(c6ccc(Cl)cc6)c6c(sc(C)c6C)-n6c(C)nnc65)cc4)cc3)c1)C1C3CCC(C3)C21 (stereo partly drawn) [compound 9, Methyl 2-chloro-6-(3-((4'-(2-((S)-4-(4-chlorophenyl)-2,3,9-trimethyl-6H-thieno[3,2 f][1,2,4]triazolo[4,3 a][1,4]diazepin-6-yl)acetamido)-[1,1'-biphenyl]-4-yl)methoxy)phenyl)--5,6,6a,7,8,9,10,10a-octahydro-7,10-methanophenanthridine-4-carboxylate]																			> 20000 nM	> 20000 nM	BRD4 degradation (BRD4 [1]; any concentration (<20 µM), 4 or 24 hr): did not promote BRD4 degradation
Cc1ccn2c(-c3csc(Nc4ccc(S(=O)(=O)Nc5cc(C)on5)cc4)n3)c(C)nc2c1 [compound 4]	did not have an inhibitory effect																				
